Test: Inhibition of Influenza A virus (A/Puerto Rico/8/34(H1N1)) PA endonuclease infected in MDCK cells assessed as reduction in virus titer treated with cells for 1 hr prior to viral infection for 1 hr followed by compound washout and subsequent compound addition measured after 48 hrs by hemagglutination test

In the case of `FC(F)(F)c1ccc(N2CCN=C2c2ccc(C3=NCCN3c3ccc(C(F)(F)F)cn3)cc2)nc1`, the IC50 is reported as 103 µM.
Compound `C[C@@H](N)C12CC3CC(CC(C3)C1)C2` [(alpha-methyl-1-adamantyl)methylamine] has an IC50 of 11 µM.
For `c1cnc(N2CCN=C2c2ccc(C3=NCCN3c3cnccn3)cc2)cn1`, the IC50 was > 809 µM.
`c1ccc(N2CCN=C2c2ccc(C3=NCCN3)cc2)cc1` gave an IC50 of 30 µM.
`Clc1ccc(N2CCN=C2c2ccc(C3=NCCN3c3ccc(Cl)cc3)cc2)cc1` gave an IC50 of 5 µM.
With `Fc1ccc(N2CCN=C2c2ccc(C3=NCCN3c3ccc(F)cc3)cc2)cc1` the IC50 was 12 µM.
For `c1ccc(N2CCN=C2c2ccc(C3=NCCN3c3ccccn3)cc2)nc1`, the IC50 was 35 µM.
`Fc1ccc(N2CCN=C2c2ccc(C3=NCCN3)cc2)cc1` showed an IC50 of 65 µM.
In the case of `COc1ccc(N2CCN=C2c2ccc(C3=NCCN3)cc2)cc1`, the IC50 is reported as 44 µM.
`c1ccc(N2CCN=C2c2ccc(C3=NCCN3c3ccccc3)cc2)cc1` showed an IC50 of 77 µM.
For `COc1ccc(N2CCN=C2c2ccc(C3=NCCN3c3ccc(OC)cc3)cc2)cc1`, the IC50 was 16 µM.
Compound `c1cncc(N2CCN=C2c2ccc(C3=NCCN3c3cccnc3)cc2)c1` has an IC50 of 68 µM.

— BindingDB's records for doi:10.1016/j.ejmech.2018.10.063 (Saint Petersburg State University, 2019)
